Experimental data as given in patent US12668589B2, “N-formamidopyrazoline derivative as P2X3 receptor antagonist and use thereof” (HANGZHOU WESTAN PHARMACEUTICAL TECHNOLOGY CO., LTD, priority 2020, dated 2026).

These compounds were tested against T1, human P2X3 (Homo sapiens, UniProt P56373) (assay: cell-based).
T1 sequence (P56373 1-397): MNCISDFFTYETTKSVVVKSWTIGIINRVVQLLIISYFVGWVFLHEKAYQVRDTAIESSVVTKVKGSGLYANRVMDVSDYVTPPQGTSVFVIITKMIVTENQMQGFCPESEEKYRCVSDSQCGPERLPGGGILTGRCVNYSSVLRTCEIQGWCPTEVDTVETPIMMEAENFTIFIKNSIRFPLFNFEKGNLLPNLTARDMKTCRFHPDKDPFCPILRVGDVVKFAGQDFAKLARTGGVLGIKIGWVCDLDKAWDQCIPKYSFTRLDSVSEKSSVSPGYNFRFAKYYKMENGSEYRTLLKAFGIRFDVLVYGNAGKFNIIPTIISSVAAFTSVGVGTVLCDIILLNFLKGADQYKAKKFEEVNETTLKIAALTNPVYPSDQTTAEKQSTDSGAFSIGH
Procedure: An HEK293 cell line was used as cells. HEK293 cells were placed in a 37° C. incubator with 5% CO2 for culture. Passage was conducted when the cells grew to a density of 80% to 90%. A culture medium in an original 60 mm culture dish was discarded. After the cells were washed 3 times with a sterilized PBS solution, and the solution was blotted up. […] After the trypsin was blotted up, 3 mL of a cell culture medium was added to resuspend the cells. 0.5 mL of a resuspension solution was taken to be added into a new culture dish, and an total culture solution was supplemented to 5 mL. The culture dish was gently shaken to distribute the cells evenly, and then placed in a 37° C. incubator with 5% CO2 for culture.
First, treated slides were spread in a small 35 mm culture dish. 100 μL of resuspended cells were added, and then a total amount of a culture medium was supplemented to 2 mL. Target genes were transferred into the HEK293 cell line by adopting a calcium transfection method. Small dishes to be transfected were subjected to medium change 1 hour before transfection. 2 mL of a fresh cell culture solution was added. A 1.5 mL EP tube was taken, 200 μL of a 0.25 M CaCl2) solution was added, and 3 μg of plasmids to be transfected were added, and even mixing was conducted to form a DNA-CaCl2 solution. […] A pipette tip was used for mixing while adding. After adding all, gentle blowing and beating were conducted 8 to 10 times. After still standing for 5 minutes, they were added into small dishes. The small dishes were shaken slightly to mix the solution evenly, and the placed in a cell incubator. Culture mediums were replaced after 8 to 10 hours. Electrophysiological experiments were performed 24 to 48 hours after transfection.
Electrophysiological recording electrodes were obtained by two-step pulling by using an electrode puller (PP-10, Narishige). After an internal solution is injected into the electrodes, a water inlet resistance is 3 to 5 MΩ. During the experiment, a high potassium salt internal solution containing nystatin (K2SO4 of 75 mM, KCl of 120 mM, MgSO4 of 5 mM, HEPES of 10 mM, adjusting pH to 7.2 with Tris-base, and used after filtration) was used as an electrode internal solution. After the cells were sealed by the electrodes, there was no need to further break cell membranes in a sucked manner, but the cell membranes were bored through the perforation of the nystatin to the cell membranes, to form a hole channel. […] A clamping voltage was −60 mV, a sampling frequency was 10 kHz, and filtering was conducted at 2 kHz.
A working concentration of a P2X3 receptor agonist ATP was 1 μM, and an interval time between two times of ATP administrations was 10 minutes.

SMILES	IC50
COC(=O)N(C)[C@@H]1CN(C(=O)N[C@H](C)c2ccc(C(F)(F)F)nc2)N=C1c1ccc(OC)cc1 [Compound 16a, (R)-4-(N-methyl-N-methoxycarbonylamino)-3-(4-methoxyphenyl)-N-((R)-1-(6-(trifluoromethyl)pyridin-3-yl)ethyl)-4,5-dihydro-1H-pyrazol-1-carboxamide]	88 nM
CC(=O)N1CCN([C@@H]2CN(C(=O)N[C@H](C)c3ccc(C(F)(F)F)nc3)N=C2c2ccc(C)cc2)C1=O [Compound 18a, (R)-4-(3-acetyl-2-oxoimidazolidin-1-yl)-3-(4-methylphenyl)-N-((R)-1-(6-(trifluoromethyl)pyridin-3-yl)ethyl)-4,5-dihydro-1H-pyrazol-1-carboxamide]	95 nM
CC(=O)N1CCN([C@H]2CN(C(=O)N[C@H](C)c3ccc(C(F)(F)F)nc3)N=C2c2ccc(C)cc2)CC1 [Compound 19]	3860 nM
Cc1ccc(C2=NN(C(=O)N[C@H](C)c3ccc(C(F)(F)F)nc3)C[C@H]2N2CCOC2=O)nc1 [Compound 23a, (R)-4-(2-oxooxazolidin-3-yl)-3-(5-methylpyridin-2-yl)-N-((R)-1-(6-(trifluoromethyl)pyridin-3-yl)ethyl)-4,5-dihydro-1H-pyrazol-1-carboxamide]	46 nM
C[C@@H](NC(=O)N1C[C@H](N2CCOCC2=O)C(c2ccc(F)cc2)=N1)c1ccc(C(F)(F)F)nc1 [Compound 24, (S)-4-(3-oxomorpholin-4-y])-3-(4-fluorophenyl)-N-((R)-1-(2-(6-(trifluoromethyl)pyridin-3-yl)ethyl)-4,5-dihydro-1H-pyrazol-1-carboxamide]	212 nM
CC(=O)N(C)[C@H]1CN(C(=O)N[C@H](C)c2ccc(C(F)(F)F)nc2)N=C1c1ccc(C)cc1 [Compound 25]	158 nM
Cc1ccc(C2=NN(C(=O)N[C@H](C)c3cnc(C(F)(F)F)cn3)C[C@H]2N2CCOCC2=O)cc1 [Compound 26a]	332 nM
Cc1ccc(C2=NN(C(=O)N[C@H](C)c3cnc(C)cn3)C[C@@H]2N2CCOC2=O)cc1 [Compound 27]	389 nM
COc1ccc([C@@H](C)NC(=O)N2C[C@H](N3CCOC3=O)C(c3ccc(Cl)cc3)=N2)nn1 [Compound 29, (S)-4-(2-oxooxazolidin-3-yl)-3-(4-chlorophenyl)-N-((R)-1-(6-(methoxy)pyridazin-3-yl)ethyl)-4,5-dihydro-1H-pyrazol-1-carboxamide]	152 nM
COc1ccc([C@@H](C)NC(=O)N2C[C@@H](N3CCOC3=O)C(c3ccc(Cl)cc3)=N2)nn1 [Compound 29a, (R)-4-(2-oxooxazolidin-3-yl)-3-(4-chlorophenyl)-N-((R)-1-(6-(methoxy)pyridazin-3-yl)ethyl)-4,5-dihydro-1H-pyrazol-1-carboxamide]	105 nM
C[C@@H](NC(=O)N1C[C@H](N2CCOCC2=O)C(c2ccc(F)cc2)=N1)c1cnc(C(F)(F)F)nc1 [Compound 33, (S)-4-(3-oxomorpholin-4-yl)-3-(4-fluorophenyl)-N-((R)-1-(2-(trifluoromethyl)pyrimidin-5-yl)ethyl)-4,5-dihydro-1H-pyrazol-1-carboxamide]	254 nM
CC(=O)N(C)[C@H]1CN(C(=O)N[C@H](C)c2cnc(C(F)(F)F)nc2)N=C1c1ccc(C)cc1 [Compound 34, (S)-4-(N-methylacetamido)-3-(4-methylphenyl)-N-((R)-1-(2-(trifluoromethyl)pyrimidin-5-yl)ethyl)-4,5-dihydro-1H-pyrazol-1-carboxamide]	169 nM
C[C@@H](NC(=O)N1C[C@H](N2CCOCC2=O)C(c2ccc(Cl)cc2)=N1)c1cnc(C(F)(F)F)nc1 [Compound 35, (S)-4-(3-oxomorpholin-4-yl)-3-(4-chlorophenyl)-N-((R)-1-(2-(trifluoromethyl)pyrimidin-5-yl)ethyl)-4,5-dihydro-1H-pyrazol-1-carboxamide]	215 nM
C[C@@H](NC(=O)N1C[C@@H](N2CCOCC2=O)C(c2ccc(Cl)cc2)=N1)c1cnc(C(F)(F)F)nc1 [Compound 35a, (R)-4-(3-oxomorpholin-4-yl)-3-(4-chlorophenyl)-N-((R)-1-(2-(trifluoromethyl)pyrimidin-5-yl)ethyl)-4,5-dihydro-1H-pyrazol-1-carboxamide]	451 nM
COc1ccc(C2=NN(C(=O)N[C@H](C)c3cnc(C(F)(F)F)nc3)C[C@H]2N2CCOCC2=O)cc1 [Compound 36a, (R)-4-(3-oxomorpholin-4-yl)-3-(4-methoxyphenyl)-N-((R)-1-(2-(trifluoromethyl)pyrimidin-5-yl)ethyl)-4,5-dihydro-1H-pyrazol-1-carboxamide]	422 nM
Cc1ncc([C@@H](C)NC(=O)N2C[C@H](N3CCOC3=O)C(c3ccc(Cl)cc3)=N2)cn1 [Compound 43, (S)-4-(2-oxooxazolidin-3-yl)-3-(4-chlorophenyl)-N-((R)-1-(2-methylpyrimidin-5-yl)ethyl)-4,5-dihydro-1H-pyrazol-1-carboxamide]	331 nM

The remaining compounds from weak to strong by IC50, led by results:

IC50	SMILES
6100 nM	Cc1ccc(C2=NN(C(=O)N[C@H](C)c3cnc(C(F)(F)F)nc3)C[C@@H]2N2CCOCC2)cc1 [Compound 39, (S)-4-(morpholin-4-yl)-3-(4-methylphenyl)-N-((R)-1-(2-(trifluoromethyl)pyrimidin-5-yl)ethyl)-4,5-dihydro-1H-pyrazol-1-carboxamide]
4910 nM	Cc1ccc(C2=NN(C(=O)N[C@H](C)c3cnc(C(F)(F)F)nc3)C[C@@H]2n2cccn2)cc1 [Compound 42]
3730 nM	CC(=O)N1CCN([C@H]2CN(C(=O)N[C@H](C)c3cnc(C(F)(F)F)nc3)N=C2c2ccc(C)cc2)CC1 [Compound 37, (S)-4-(4-acetylpiperazin-1-yl)-3-(4-methylphenyl)-N-((R)-1-(2-(trifluoromethyl)pyrimidin-5-yl)ethyl)-4,5-dihydro-1H-pyrazol-1-carboxamide]
2670 nM	Cc1ccc(C2=NN(C(=O)N[C@H](C)c3cnc(C(F)(F)F)nc3)C[C@@H]2N2CCN(C)CC2)cc1 [Compound 38]
365 nM	C[C@@H](NC(=O)N1C[C@@H](N2CCOCC2=O)C(c2ccc(F)cc2)=N1)c1cnc(C(F)(F)F)nc1 [Compound 33a, (R)-4-(3-oxomorpholin-4-yl)-3-(4-fluorophenyl)-N-((R)-1-(2-(trifluoromethyl)pyrimidin-5-yl)ethyl)-4,5-dihydro-1H-pyrazol-1-carboxamide]
283 nM	COc1ccc(C2=NN(C(=O)N[C@H](C)c3cnc(C(F)(F)F)nc3)C[C@@H]2N2CCOCC2=O)cc1 [Compound 36, (S)-4-(3-oxomorpholin-4-yl)-3-(4-methoxyphenyl)-N-((R)-1-(2-(trifluoromethyl)pyrimidin-5-yl)ethyl)-4,5-dihydro-1H-pyrazol-1-carboxamide]
257 nM	Cc1ccc(C2=NN(C(=O)N[C@H](C)c3cnc(C)cn3)C[C@H]2N2CCOC2=O)cc1 [Compound 27a]
233 nM	C[C@@H](NC(=O)N1C[C@H](N2CCCC2=O)C(c2ccc(F)cc2)=N1)c1cnc(Cl)nc1 [Compound 44, (S)-4-(2-oxopyrrolidin-1-yl)-3-(4-fluorophenyl)-N-((R)-1-(2-chloropyrimidin-5-yl)ethyl)-4,5-dihydro-1 H-pyrazol-1-carboxamide]
231 nM	CC(=O)N(C)[C@@H]1CN(C(=O)N[C@H](C)c2cnc(C(F)(F)F)nc2)N=C1c1ccc(C)cc1 [Compound 34a, (R)-4-(N-methylacetamido)-3-(4-methylphenyl)-N-((R)-1-(2-(trifluoromethyl)pyrimidin-5-yl)ethyl)-4,5-dihydro-1H-pyrazol-1-carboxamide]
218 nM	Cc1cnc([C@@H](C)NC(=O)N2C[C@H](N3CCCC3=O)C(c3ccc(F)cc3)=N2)cn1 [Compound 28, (S)-4-(2-oxopyrrolidin-1-yl)-3-(4-fluorophenyl)-N-((R)-1-(5-methylpyrazin-2-yl)ethyl)-4,5-dihydro-1H-pyrazol-1-carboxamide]
173 nM	CC(=O)N1CCN([C@H]2CN(C(=O)N[C@H](C)c3ccc(C(F)(F)F)nc3)N=C2c2ccc(C)cc2)C1=O [Compound 18, (S)-4-(3-acetyl-2-oxoimidazolidin-1-yl)-3-(4-methylphenyl)-N-((R)-1-(6-(trifluoromethyl)pyridin-3-yl)ethyl)-4,5-dihydro-1H-pyrazol-1-carboxamide]
165 nM	Cc1cnc([C@@H](C)NC(=O)N2C[C@@H](N3CCCC3=O)C(c3ccc(F)cc3)=N2)cn1 [Compound 28a, (R)-4-(2-oxopyrrolidin-1-yl)-3-(4-fluorophenyl)-N-((R)-1-(5-methylpyrazin-2-yl)ethyl)-4,5-dihydro-1H-pyrazol-1-carboxamide]
145 nM	C[C@@H](NC(=O)N1C[C@@H](N2CCOCC2=O)C(c2ccc(F)cc2)=N1)c1ccc(C(F)(F)F)nc1 [Compound 24a]
143 nM	Cc1ccc(C2=NN(C(=O)N[C@H](C)c3cnc(C(F)(F)F)cn3)C[C@@H]2N2CCOCC2=O)cc1 [Compound 26]
132 nM	COC(=O)N(C)[C@H]1CN(C(=O)N[C@H](C)c2ccc(C(F)(F)F)nc2)N=C1c1ccc(OC)cc1 [Compound 16, (S)-4-(N-methyl-N-methoxycarbonylamino)-3-(4-methoxyphenyl)-N-((R)-1-(6-(trifluoromethyl)pyridin-3-yl)ethyl)-4,5-dihydro-1H-pyrazol-1-carboxamide]
127 nM	Cc1ccc(C2=NN(C(=O)N[C@H](C)c3cnc(C(F)(F)F)nc3)C[C@@H]2N2CCCC2=O)cc1 [Compound 32, (S)-4-(2-oxopyrrolidin-1-yl)-3-(4-methylphenyl)-N-((R)-1-(2-(trifluoromethyl)pyrimidin-5-yl)ethyl)-4,5-dihydro-1H-pyrazol-1-carboxamide]
112 nM	CC(=O)N(C)[C@@H]1CN(C(=O)N[C@H](C)c2ccc(C(F)(F)F)nc2)N=C1c1ccc(C)cc1 [Compound 25a]
85 nM	Cc1ccc(C2=NN(C(=O)N[C@H](C)c3ccc(C(F)(F)F)nc3)C[C@H]2N2CCCC2=O)cc1 [Compound 21a]
